Reference: US20220265775A1, “COMPOSITIONS AND METHODS FOR TREATING PULMONARY EDEMA OR LUNG INFLAMMATION” (priority 2019, published 2022)

System: RLE-6TN cells
Assay: RLE-6TN cell survival under hyperoxia and recovery, viable cells counted by trypan blue exclusion
Type: cell-based, rat
Experimental: FIG. 7. […] The cells were cultured in DMEM/F12 with 10% FBS in 21% O2 and 5% CO2 overnight. […] The viable cells are counted immediately after 72-hour hyperoxia exposure. Cell viability is assessed with trypan blue. The amount of viable cells under specific conditions is presented as a percentage of the cell number from hyperoxia alone. Data are mean±s.d. of four independent experiments with *=P<0.05; **=P<0.01.
FIG. 8. […] In both (A) and (B), the number of viable cells under specific conditions is presented as a percentage of the cell number related to hyperoxia alone in the same experiment. Data are mean s.d. of four independent experiments with *=P<0.05; **=P<0.01.
FIG. 10. HO-1 upregulation is required for T3-increased RLE-6TN cell survival in hyperoxia. […] The cells were then collected for Western Blot analysis. (B) The cells were incubated in 21% O2 and 5% CO2 for 72 hours in the present of HO-1 inhibitor Tin Protoporphyrin IX (10^−6M). […] Cell viability is assessed with trypan blue. The number of viable cells under specific conditions is presented as a percentage of the cell number related to hyperoxia alone. Data are mean±s.d. of three independent experiments with *=P<0.05; **=P<0.01.
FIG. 11. PI3K inhibitor wortmannin blocked T3-induced cell survival in hyperoxia. […] Cell viability is assessed with trypan blue. The number of viable cells under specific conditions is presented as a percentage of the cell number related to hyperoxia alone. Data are mean±s.d. of four independent experiments with *=P<0.05; **=P<0.01.
At the end of the hyperoxia exposure period, the viable cells were counted by trypan blue dye exclusion.

Structure (SMILES) | AT2 cell number in room air (21% O2 for 72 hours, Tin Protoporphyrin IX 10^−6M) | effect on T3-caused increase in cell survival in hyperoxia (90% O2 72 hours, T3 10^−6M with Tin Protoporphyrin IX 10^−6M) | number of viable AT2 cells at 48 hours of recovery (90% oxygen for 24 or 48 hours, compound present only during recovery in 21% O2) | effect on cell survival under hyperoxia (90% oxygen for 72 hours, 10^−6M)
C=Cc1c2[n-]c(c1C)/C=c1\[n-]/c(c(C)c1C=C)=C\c1[n-]c(c(CCC(=O)O)c1C)C=c1[n-]/c(c(C)c1CCC(=O)O)=C\2.[Sn+4] [Tin protoporphyrin, Tin Protoporphyrin IX] | no effect on AT2 cell number in room air | blocked the T3-caused increase in cell survival and augmented cell death |  | 
N[C@@H](Cc1ccc(Oc2cc(I)c(O)c(I)c2)c(I)c1)C(=O)O [rT3] |  |  | no protective effect | no role in cell survival
